Several values for one entry are separate records, joined by “and”; a condition that tells them apart may be missing. Equal values may be shown once. Where a name gives a salt, the structure may show the parent alone.
Test system: K-562 cells
Assay: Cell lysis efficiency and cDNA yield in bulk (lysis and RT in one mix, PCR, BioAnalyzer/Qubit)
Assay type: cell-based
Conditions: cDNA yield divided by cDNA yield with 0.1% NP40 of the same Part
Procedure: The cells, lysis reagents and reverse transcription reagents are mixed together to create one reaction mix. The mRNA released from the lysed cells is reverse transcribed using oligonucleotides into a copy DNA (cDNA). The resulting cDNA is then purified using AMPure purification kit, PCR-amplified and analysed by capillary electrophoresis (BioAnalyzer). The DNA amount is also evaluated by fluorometer (Qubit) and the cDNA yields between different lysis conditions is compared to the reference (0.1% NP40).
The detailed composition and reaction conditions are provided below. Briefly, cell lysis and RT reaction were carried out in bulk with MCF7 and K562 cells. Samples containing 0.02%-0.6% of different cell lysis reagent were evaluated. After the RT reaction, cDNA was pass through a column to remove cell debris and gDNA, purified with 1.2× AMPure, eluted in 20 μl water, amplified by 12-cycles of PCR, purified reaction product with 1.2× AMPure and analyzed on BioAnalyzer chip.
Different sets of detergents were prepared in DEPC-water. Each set was tested separately. The cDNA yield for each detergent was compared to the cDNA yield obtained with 0.1% NP40 final concentration.
4. Setting Up RT Reaction: • 1. […] The final volume of reaction was 40 uL. • 4. RT reaction was carried out at 50° C. for 60 min followed by inactivation at 85° C. for 5 min. • 5. After RT reaction samples were immediately processed further by passing them through Zymo column for 1 min at 10000 g. • 6. The flow through fraction was cleaned up with 1.2× AMPure beads and eluted in 20 μL of water and processed further.
5. cDNA Amplification: • 7. cDNA amplification mix was prepared as follows:
• 8. 12 μL of cDNA amplification mix were mixed with 8 μL of purified cDNA material resulting in a total of 20 μL solution. • 9. Each sample was transferred to thermocycler and PCR program was started:
• 10. Amplified cDNA was cleaned up with 1.2× AMPure beads and eluted to 20 μL of water. • 11. DNA concentration of each sample was measured with Qubit. Samples were frozen only after cDNA amplification if needed). • 12. Calculate the dilution factor needed to reach 1 ng/uL for 0.1% NP40 sample, which is used as a reference. • 13. Load 1 μL of each sample (diluted as much times as 0.1% NP40 sample) on BioAnalyzer (BioA) HS DNA kit/chip and calculate the cDNA yield (ng/μl).
The “Relative lysis efficiency” was estimated by first quantifying the cDNA yield (ng/μl) obtained at a given lysis condition and then dividing the said cDNA yield by the cDNA yield obtained when using 0.1% NP40.

| Compound | Relative lysis efficiency (single detergent at 0.1%) | Relative lysis efficiency (single detergent at 0.02%) | Relative lysis efficiency (single detergent at 0.2%) | Relative lysis efficiency (single detergent at 0.3%) | Relative lysis efficiency (single detergent at 0.4%) | Relative lysis efficiency (single detergent at 0.6%) |
| --- | --- | --- | --- | --- | --- | --- |
| Triton X-100 | 0.78 | – | – | – | – | – |
| CCCCCCCCCCCCN(C)CC(=O)O [N-Laurylsarcosine] | 0.35 | 0.41 | – | – | – | – |
| (1-dodecyl) trimethylamonium bromide | 0.25 | 0.88 | – | – | – | – |
| Tween 80 | 0.50 and 0.73 | – | 0.69 | 0.72 | 0.71 | 0.70 |
| CCCCCCCCCc1ccc(OCCOCCOCCOCCOCCOCCOCCOCCOCCO)cc1 [Igepal CO630] | 0.98 | – | – | – | – | – |
| NP40 | 1.00 | – | 1.01 | – | 0.98 | 1.18 |
| C[C@@H]1CC[C@@]2(OC1)O[C@H]1[C@@H](O)[C@H]3[C@@H]4CC[C@H]5C[C@@H](O[C@@H]6O[C@H](CO)[C@H](O[C@@H]7O[C@H](CO)[C@@H](O)[C@H](O[C@@H]8OC[C@@H](O)[C@H](O)[C@H]8O)[C@H]7O[C@@H]7O[C@H](CO)[C@H](O)[C@H](O[C@@H]8O[C@H](CO)[C@@H](O)[C@H](O)[C@H]8O)[C@H]7O)[C@H](O)[C@H]6O)[C@H](O)C[C@]5(C)[C@H]4CC[C@]3(C)[C@H]1[C@@H]2C [Digitonin] | 0.85 | 0.85 | – | – | – | – |
| CCCCCCCCS[C@@H]1O[C@H](CO)[C@@H](O)[C@H](O)[C@H]1O [n-octyl-β-D-thioglucopyranoside (OTG), n-octyl-β-D-thioglucopyranoside] | 0.31 | 0.37 | – | – | – | – |
| CCCCCCCCO[C@@H]1O[C@H](CO)[C@@H](O)[C@H](O)[C@H]1O [n-octyl-β-D-glucopyranoside (OBG), n-octyl-β-D-glucopyranoside] | 0.36 | 0.36 | – | – | – | – |
| Tween 20 | 0.98 and 0.99 | – | 0.99 | 0.99 | 0.99 | 1.02 |
| Tergitol NP40 | 0.63 | – | – | – | – | – |
| Tween 60 | 0.65 | – | – | – | – | – |
| C[C@H](CCC(=O)O)[C@H]1CC[C@H]2[C@@H]3CC[C@@H]4C[C@H](O)CC[C@]4(C)[C@H]3C[C@H](O)[C@]12C [Deoxycholic acid Na salt] | 0.24 | 0.51 | – | – | – | – |
| C[C@H](CCC(=O)NCCC[N+](C)(C)CCCS(=O)(=O)[O-])[C@H]1CC[C@H]2[C@@H]3[C@H](O)C[C@@H]4C[C@H](O)CC[C@]4(C)[C@H]3C[C@H](O)[C@]12C [CHAPS] | 0.43 | 0.43 | – | – | – | – |

— patent publication US20240026339A1, “COMPOSITION AND THE USE OF CELL LYSIS REAGENTS” (Vilnius University, priority 2022, published 2024)
